Measured values: PMC7380166, “How to Study the Metabolism of New Psychoactive Substances for the Purpose of Toxicological Screenings—A Follow-Up Study Comparing Pooled Human Liver S9, HepaRG Cells, and Zebrafish Larvae” (Frontiers in Chemistry, 2020)

Key:
Assay type in all cases: in vitro ADME
Parameters in all cases: key: +, detected; –: −, not detected
CYP2C9 = target: T1, CYP2C9 (Homo sapiens, UniProt P11712); experiment: Monooxygenases activity screening, CYP2C9; conditions: 25 μM 4F-MDMB-BINACA, 50 pmol/ml enzyme, 30 min, 37°C, duplicate
T1 construct: purchased Corning; host or cells: baculovirus-transfected insect cell microsomes (Supersomes)
Procedure: (§1) According to an established protocol (Wagmann et al., [2016]), the final volume per reaction tube was 50 μl with a final 4F-MDMB-BINACA concentration of 25 μM and enzyme concentrations of 50 pmol/ml for CYP1A2, CYP2A6, CYP2B6, CYP2C8, CYP2C9, CYP2C19, CYP2D6, CYP2E1, CYP3A4, and CYP3A5, respectively, or 0.25 mg protein/ml for FMO3. Furthermore, the reaction mixture contained 90 mM phosphate buffer (pH 7.4), superoxide dismutase (200 U/ml), isocitrate (5 mM), MgCl2 (5 mM), isocitrate dehydrogenase (0.5 U/ml), and NADP^+ (1.2 mM). The phosphate buffer was replaced with Tris buffer (90 mM) for incubations with CYP2A6 and CYP2C9 according to the manufacturer's recommendation. All incubations were performed at 37°C for 30 min and terminated by adding 50 μl of ice-cold acetonitrile. Afterwards, the mixtures were centrifuged at 18,407 × g for 5 min, 70 μl of the supernatants was transferred into autosampler vials, and 1 μl was injected onto the LC-HRMS/MS system. Positive control incubations were performed with pHLM (1 mg microsomal protein/ml), and negative controls without enzyme were prepared to identify non-metabolically formed compounds. All incubations were done in duplicate.

FMO3 = target: T2, FMO3 (Homo sapiens, UniProt P31513); experiment: Monooxygenases activity screening, FMO3; conditions: 25 μM 4F-MDMB-BINACA, 0.25 mg protein/ml, 30 min, 37°C, duplicate
T2 construct: purchased Corning; host or cells: baculovirus-transfected insect cell microsomes (Supersomes)
T2 sequence (P31513 1-532): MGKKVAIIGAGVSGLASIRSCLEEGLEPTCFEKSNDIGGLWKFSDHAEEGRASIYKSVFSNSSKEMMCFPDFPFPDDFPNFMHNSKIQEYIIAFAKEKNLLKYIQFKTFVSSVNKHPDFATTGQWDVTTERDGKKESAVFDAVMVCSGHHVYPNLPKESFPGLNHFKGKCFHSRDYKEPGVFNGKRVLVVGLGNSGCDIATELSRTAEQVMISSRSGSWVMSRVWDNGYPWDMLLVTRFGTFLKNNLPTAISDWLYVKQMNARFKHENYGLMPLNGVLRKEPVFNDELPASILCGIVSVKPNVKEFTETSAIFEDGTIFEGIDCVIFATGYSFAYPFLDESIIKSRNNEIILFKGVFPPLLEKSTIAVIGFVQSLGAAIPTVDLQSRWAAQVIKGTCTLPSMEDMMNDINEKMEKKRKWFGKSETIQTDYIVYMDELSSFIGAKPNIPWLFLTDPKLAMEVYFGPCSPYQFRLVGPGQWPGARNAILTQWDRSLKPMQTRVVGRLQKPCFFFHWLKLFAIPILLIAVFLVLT
Procedure: as §1

CYP3A4 = target: T3, CYP3A4 (Homo sapiens, UniProt P08684); experiment: Monooxygenases activity screening, CYP3A4; conditions: 25 μM 4F-MDMB-BINACA, 50 pmol/ml enzyme, 30 min, 37°C, duplicate
T3 construct: purchased Corning; host or cells: baculovirus-transfected insect cell microsomes (Supersomes)
Procedure: as §1

T3 sequence (P08684 whole entry): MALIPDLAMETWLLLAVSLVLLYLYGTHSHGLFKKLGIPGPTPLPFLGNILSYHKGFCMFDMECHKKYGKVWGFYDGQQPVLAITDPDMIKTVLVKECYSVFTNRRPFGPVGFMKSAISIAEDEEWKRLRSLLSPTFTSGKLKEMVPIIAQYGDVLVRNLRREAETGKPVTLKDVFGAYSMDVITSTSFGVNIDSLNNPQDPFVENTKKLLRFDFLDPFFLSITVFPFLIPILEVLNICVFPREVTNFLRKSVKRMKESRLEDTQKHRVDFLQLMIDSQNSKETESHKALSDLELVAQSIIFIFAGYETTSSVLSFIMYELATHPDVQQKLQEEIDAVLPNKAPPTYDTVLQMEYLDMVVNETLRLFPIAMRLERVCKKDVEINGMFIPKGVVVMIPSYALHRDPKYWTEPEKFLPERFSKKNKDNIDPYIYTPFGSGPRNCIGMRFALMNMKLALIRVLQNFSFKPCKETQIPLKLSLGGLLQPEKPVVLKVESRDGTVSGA
T1 sequence (P11712 whole entry): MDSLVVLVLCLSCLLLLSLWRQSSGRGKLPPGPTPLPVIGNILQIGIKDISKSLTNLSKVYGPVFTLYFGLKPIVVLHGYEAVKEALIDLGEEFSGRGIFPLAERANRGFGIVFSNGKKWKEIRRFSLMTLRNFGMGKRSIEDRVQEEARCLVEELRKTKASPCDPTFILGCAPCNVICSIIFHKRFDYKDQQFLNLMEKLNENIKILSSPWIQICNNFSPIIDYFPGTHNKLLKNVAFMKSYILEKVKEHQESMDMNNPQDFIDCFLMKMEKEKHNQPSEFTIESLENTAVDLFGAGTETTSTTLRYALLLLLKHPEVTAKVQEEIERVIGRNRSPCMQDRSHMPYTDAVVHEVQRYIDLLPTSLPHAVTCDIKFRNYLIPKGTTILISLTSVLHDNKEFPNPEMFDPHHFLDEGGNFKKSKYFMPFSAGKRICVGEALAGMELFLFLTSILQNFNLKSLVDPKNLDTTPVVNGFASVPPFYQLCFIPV

SMILES | Detection of metabolite in incubation with CYP2C9 (CYP2C9) | Detection of metabolite in incubation with FMO3 (FMO3) | Detection of metabolite in incubation with CYP3A4 (CYP3A4)
COC(=O)[C@@H](NC(=O)c1nn(CCCCF)c2ccccc12)C(C)(C)CO [MB16] | – | – | –
COC(=O)[C@@H](NC(=O)c1nn(CCCCO)c2ccccc12)C(C)(C)C [MB11] | – | – | –
CC(C)(C)C(NC(=O)c1nn(CCCCF)c2ccccc12)C(=O)O (stereo not drawn) [MB8] | – | – | –
O=C(O)c1nn(CCCCF)c2ccccc12 [MB1] | – | – | –
COC(=O)[C@@H](NC(=O)c1n[nH]c2ccccc12)C(C)(C)C [MB4] | – | – | +
